The text below walks through data of ChEMBL document CHEMBL3580640, “Design, Synthesis, and Structure-Activity Relationships of Pyridine-Based Rho Kinase (ROCK) Inhibitors” (J Med Chem, 2015).

What all share (type): ADME, organism-based
Details in all cases: in vivo

Series [1] is described as follows: AUC in iv dosed rat.
Series [2] can be described thus: Cmax in po dosed rat. Also on record: route oral.
In series [3] the test system is Rattus norvegicus. The series is described as follows: Volume of distribution at steady state in iv dosed rat.
Series [4] concerns Rattus norvegicus. Kind of series: Half life in iv dosed rat.
A short description of series [5]: Half life in po dosed rat.
Series [6] is described as follows: AUC in po dosed rat.
Series [7] relates to Rattus norvegicus. The series is described as follows: Clearance in iv dosed rat.
Series [8] in a line: Oral bioavailability in rat.
Series [9] can be described thus: Cmax in iv dosed rat. Details: route intravenous.
Series [10] can be described thus: Tmax in po dosed rat.

Consider `CS(=O)(=O)Nc1cccc(CC(=O)Nc2cc(-c3ccnc(F)c3)cs2)c1`, for which the area under the curve (AUC) (in general, the area under the concentration-time curve, a measure of exposure) in [1] stood at 4310 ng·h/mL; in [6], 32600 ng·h/mL. The Cmax (in general, the peak of the concentration-time curve) in [2] stood at 3200 ng/mL; in [9], 2920 ng/mL. Besides, in the series on Rattus norvegicus [3], the Vdss (usually the apparent volume that relates the amount in the body to the concentration in plasma or blood) worked out at 0.675 L/kg. For the same compound, the t1/2 with Rattus norvegicus [4] worked out at 2.6 h. For the same compound, the half-life (as a rule, how long it takes for the measured level to halve) in [5] was 3.4 h. Also, the clearance (usually the volume of plasma or blood freed of the substance per unit of time) in the series on Rattus norvegicus [7] was determined as 3.45 mL/min/kg. Moreover, the bioavailability (as a rule, dose-corrected exposure relative to a reference, in per cent) in series [8] came to 69%. In addition, the time to peak (Tmax) (commonly the time from dosing to the highest level) in series [10] was 3 h.
